Measured values taken from US11840518B2, “Use of bromophenol-pyrazoline compounds for the treatment of feline coronavirus diseases” (Shandong Linghai Biotechnology Co., Ltd., priority 2021, dated 2023).

How the values were obtained:
[1] = system: FIPV wild strain in CRFK cells; experiment: Interference with FIPV replication in infected CRFK cells (qRT-PCR of vRNA in supernatant); assay type: cell-based, feline infectious peritonitis virus; conditions: 5 μM, CRFK cells infected with wild-type FIPV, 24 hours; FIG. 2
Method: To further confirm in vitro enzymatic inhibition results, the inventors evaluated whether the bromophenol-pyrazoline compounds could prevent FIPV replication in clinical wild-type FIPV-infected Crandell-Rees feline kidney (CRFK) cells.
The CRFK cells were cultured with DMEM containing 8% fetal bovine serum in a cell incubator with 5% CO2 at 37° C. When the cells grew to a density of about 80%, the cells were pretreated with 5 μM bromophenol-pyrazoline compounds to be tested for 1 hour, and then an FIPV wild strain (MOI=0.1) was inoculated into the CRFK cells. The CRFK cells inoculated with virus but without the compounds were set up as controls. After 24 hours, a cell supernatant was collected, and vRNA in the supernatant was subject to qRT-PCR analysis.

FIPV = experiment: Clinical trial in cats infected with the FIPV (feline infectious peritonitis); assay type: in vivo; conditions: for Moderate response: 4-week treatment
Description: Serology or morphology cannot distinguish feline enteric coronavirus from the FIPV. According to the history, epidemiology, clinical symptoms, laboratory diagnosis, imaging examination and histopathological examination, the cats were diagnosed comprehensively after other diseases were ruled out.
Thirty cats infected with the FIPV were divided into a wet FIP group (n=17) and a dry FIP group (n=13) according to presence of significant pleural effusion, ascites, dyspnea and other symptoms (fibrous pleurisy and peritonitis). The wet FIP group (17 cats) was randomly divided into a control group (3 cats), a GS-441524 group (6 cats) and a compound 5 group (8 cats). The dry FIP group (13 cats) was randomly divided into a control group (2 cats), a GS-441524 group (5 cats) and a compound 5 group (6 cats).
For the wet and dry GS-441524 groups: 4.0 mg/kg was administered subcutaneously every 24 hours; and for the wet and dry compound 5 groups: 3 mg/kg was orally administered after dissolved in glucose solution once a day.
Rectal temperature was measured at least once a day, and body weight, respiration, appetite and activity were observed. Special people were arranged to feed the cats, and foodware was washed and disinfected every day. The cats with good appetite were fed with conventional cat food, and high protein pet food can was used as nutritional supplement. The cats with poor appetite were subject to nasal feeding and intravenous injection for nutritional supplement to ensure nutrition intake of the experimental cats. At the same time, defecation and urination were also observed in terms of volume and shape. The cats were examined for blood routine indexes, serum biochemical indicators and abdominal B ultrasound condition according to actual situation.
Cases with good appetite, body weight, respiration, body temperature and other body conditions at the completion of 4-week treatment, and examined for the blood routine indexes and serum biochemical indicators twice (more than 1 week apart) were defined as effective.

FIP = conditions: 4 weeks of continuous treatment at 4 mg/kg; cited from earlier work
[2] = dry FIP group, number of cats (GS-441524 group n=5, 4.0 mg/kg s.c.; compound 5 group n=6, 3 mg/kg oral)
[3] = dry FIP group, number of cats (GS-441524 group n=5; compound 5 group n=6)
[4] = wet FIP group, number of cats (GS-441524 group n=6, 4.0 mg/kg s.c.; compound 5 group n=8, 3 mg/kg oral)
[5] = wet FIP group, number of cats (GS-441524 group n=6; compound 5 group n=8)

Structure (SMILES) | ability to interfere with the FIPV virus replication [1] | time within which ocular lesions in some cats began to resolve significantly (FIPV; Compound 5 treatment group) [h] | treatment time after which normal cat food was given (FIPV; Compound 5 treatment group) [days] | treatment time after which the body temperature returned to normal and the body weight increased (FIPV; Compound 5 treatment group) [days] | comparison with the positive drug GS-441524 group (FIPV; compound 5 3 mg/kg oral once a day vs GS-441524 4.0 mg/kg s.c. every 24 hours) | Clinical manifestations: time within which ocular lesions in some cats began to resolve significantly (FIPV; dry FIP group) | Clinical manifestations: treatment time after which normal/ordinary cat food was given (FIPV; dry FIP group) | Clinical manifestations: treatment time after which the intake returned to normal (FIPV; dry FIP group) | Death (FIPV; [2]) | Moderate response (FIPV; [3]) | Clinical manifestations: treatment time after which ascites and dyspnea basically recovered (FIPV; wet FIP group) | Clinical manifestations: treatment time after which the normal cat food was given (FIPV; wet FIP group) | Death (FIPV; [4]) | Moderate response (FIPV; [5]) | cats with the FIP in remission (FIP) | Clinical manifestations: treatment time after which the food intake recovered (FIPV; dry FIP group) | Clinical manifestations: treatment time after which the food intake recovered (FIPV; wet FIP group)
COc1ccc(C2=NN(C(N)=S)C(c3cc(O)c(O)c(Br)c3Br)C2)cc1 (stereo not drawn) [Compound 5] | strongest ability to inhibit FIPV virus replication | ≤ 48 | 1 | 7 | faster onset of action, fewer deaths and higher response rate | 48 hours, and the | given after 1 day of days | normal after 3 days | 0 | 5 | after 10 days of | After 1 day of treat- | 1 | 6 |  |  | 
N#C[C@@]1(c2ccc3c(N)ncnn23)O[C@H](CO)[C@@H](O)[C@H]1O [GS-441524, reference compound] |  |  |  |  |  |  |  |  | 0 | 3 |  |  | 1 | 3 | about 60% | After 3 days of treat- | After 3 days of treat-
